Data: ChEMBL document CHEMBL1136775, “Indole naphthyridinones as inhibitors of bacterial enoyl-ACP reductases FabI and FabK” (J Med Chem, 2003)
≈ marks a conversion by molar mass, not a printed value.

Tests used:
[1] = test system: Staphylococcus aureus; assay: Antibacterial activity against Staphylococcus aureus WCUH29; format: functional
[2] = Inhibitory activity against Enoyl-ACP reductase FabI in Haemophilus influenzae
[3] = test system: Haemophilus influenzae; assay: Antibacterial activity against Haemophilus influenzae Q1; format: functional
[4] = molecular target: T1, Enoyl-[acyl-carrier-protein] reductase [NADPH] FabI (Staphylococcus aureus, UniProt Q6GI75); assay: Inhibitory activity against Enoyl-ACP reductase FabI in Staphylococcus aureus
T1 sequence (Q6GI75 whole entry): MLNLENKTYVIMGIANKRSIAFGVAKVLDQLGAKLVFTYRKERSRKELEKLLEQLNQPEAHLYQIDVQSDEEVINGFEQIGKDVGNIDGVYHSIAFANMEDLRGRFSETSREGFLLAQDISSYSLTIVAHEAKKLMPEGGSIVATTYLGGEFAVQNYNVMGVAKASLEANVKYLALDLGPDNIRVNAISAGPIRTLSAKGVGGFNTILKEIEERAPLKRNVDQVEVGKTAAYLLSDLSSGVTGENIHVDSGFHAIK

[5] = test system: Liposome; assay: Inhibitory activity in liposome lysis assay; format: functional, subcellular, Homo sapiens
[6] = Inhibitory activity against human FASI enzyme; format: functional
[7] = test system: A549; assay: Cytotoxicity against human A549 lung cells; format: functional, cell-based
[8] = test system: Streptococcus pneumoniae; assay: Antibacterial activity against Streptococcus pneumoniae 1629; format: functional
[9] = Inhibitory activity against Enoyl-ACP reductase FabI in Escherichia coli; format: functional
[10] = test system: Enterococcus faecalis; assay: Antibacterial activity against Enterococcus faecalis I; format: functional
[11] = test system: Moraxella catarrhalis; assay: Antibacterial activity against Moraxella catarrhalis; format: functional
[12] = test system: Escherichia coli; assay: Antibacterial activity against Escherichia coli 120AcrAB-; format: functional
[13] = Inhibitory activity against Enoyl-ACP reductase FabK in Streptococcus pneumoniae; format: functional
[14] = test system: Staphylococcus aureus; assay: Inhibitory activity against Staphylococcus aureus; format: functional
[15] = test system: Staphylococcus aureus; assay: Antibacterial activity against in Staphylococcus aureus WCUH29; format: functional

Row | Structure (SMILES) | MIC50 [1] | IC50 [2] | MIC50 [3] | IC50 [4] | IC50 [5] | IC50 [6] | IC50 [7] | MIC50 [8] | IC50 [9] | MIC50 [10] | MIC50 [11] | MIC50 [12] | IC50 [13] | Ki [14] | MIC50 [15]
1 | CC(=O)Nc1ccc(/C=C/C(=O)N(C)Cc2cc3ccccc3n2C)cn1 | 0.12 µg/mL (≈ 0.331 µM) | 1300 nM | 32 µg/mL (≈ 88.3 µM) | 300 nM |  |  |  |  |  |  |  |  |  |  | 
2 | CN(Cc1cc2ccccc2n1C)C(=O)/C=C/c1ccc(N)nc1 | 0.5 µg/mL (≈ 1.56 µM) | 4200 nM | > 64 µg/mL |  | 630 µM | > 100 µM | 512 µg/mL (≈ 1600 µM) |  |  |  |  |  |  |  | 
3 | Cc1c(CN(C)C(=O)/C=C/c2cnc3c(c2)CCC(=O)N3)c2ccccc2n1C | < 0.001 µg/mL | 25 nM | > 64 µg/mL | 60 nM |  |  |  | > 64 µg/mL | 30 nM | > 64 µg/mL | < 0.06 µg/mL | 32 µg/mL (≈ 82.4 µM) | > 30 µM |  | 
4 | CN(Cc1cn(C)c2ccccc12)C(=O)/C=C/c1cnc2c(c1)CCC(=O)N2 | 0.06 µg/mL (≈ 0.16 µM) | 390 nM | 16 µg/mL (≈ 42.7 µM) | 130 nM |  |  |  | 16 µg/mL (≈ 42.7 µM) | 70 nM | 16 µg/mL (≈ 42.7 µM) | < 0.06 µg/mL | 8 µg/mL (≈ 21.4 µM) | 5 µM |  | 
5 | Cc1[nH]c2ccccc2c1CN(C)C(=O)/C=C/c1cnc2c(c1)CCC(=O)N2 | 0.016 µg/mL (≈ 0.0427 µM) | 130 nM | 1 µg/mL (≈ 2.67 µM) | 50 nM |  |  |  | 16 µg/mL (≈ 42.7 µM) | < 60 nM | 16 µg/mL (≈ 42.7 µM) | < 0.06 µg/mL | 0.5 µg/mL (≈ 1.34 µM) | 3 µM |  | 
6 | CN(Cc1cc2ccccc2n1C)C(=O)/C=C/c1cnc2c(c1)CCCN2 | 0.5 µg/mL (≈ 1.39 µM) | 2700 nM | > 64 µg/mL | 2300 nM |  |  |  |  |  |  |  |  |  |  | 
7 | CN(Cc1cc2ccccc2n1C)C(=O)/C=C/c1cnc2c(c1)CCC(=O)N2 | 0.03 µg/mL (≈ 0.0801 µM) | 560 nM | 32 µg/mL (≈ 85.5 µM) | 50 nM |  |  |  |  |  |  |  |  |  | 4.3 nM | 
8 | Cc1cc(/C=C/C(=O)N(C)Cc2cc3ccccc3n2C)cnc1N | 0.25 µg/mL (≈ 0.748 µM) | 6100 nM | > 64 µg/mL | 910 nM |  |  |  |  |  |  |  |  |  |  | 
9 | CC(=O)Nc1ncc(/C=C/C(=O)N(C)Cc2cc3ccccc3n2C)cc1C |  | 7600 nM | > 64 µg/mL | 940 nM |  |  |  |  |  |  |  |  |  |  | 2 µg/mL (≈ 5.31 µM)
10 | Cc1cccc2c(CN(C)C(=O)/C=C/c3cnc4c(c3)CCC(=O)N4)c(C)n(C)c12 | < 0.001 µg/mL | 70 nM | > 64 µg/mL | 20 nM |  |  |  | > 64 µg/mL | < 70 nM | > 64 µg/mL | 2 µg/mL (≈ 4.97 µM) | > 64 µg/mL | > 30 µM |  | 
11 | Oc1cc(Cl)ccc1Oc1ccc(Cl)cc1Cl [TRICLOSAN] | 0.03 µg/mL (≈ 0.104 µM) |  | 0.5 µg/mL (≈ 1.73 µM) |  |  |  |  | 16 µg/mL (≈ 55.3 µM) |  | 16 µg/mL (≈ 55.3 µM) | < 0.06 µg/mL | 0.5 µg/mL (≈ 1.73 µM) | > 30 µM |  | 
